Test results published in paper PMC6503537, “Synthesis of HDAC Substrate Peptidomimetic Inhibitors Using Fmoc Amino Acids Incorporating Zinc-Binding Groups” (Organic Letters, 2019).
Starred links: 1 amine or outer side, 2 acyl side, 3 side chain; linkers in the order of their positions; H or OH if unused. Non-standard residues stand in square brackets, D forms with d. Residues, ends and D or L forms follow the SMILES beside them. *: point of attachment. X1 = CCC(=O)CCCCC[C@H](N[*:1])C(=O)[*:2]; Asu = N[C@@H](CCCCCC(=O)O)C(=O)O; NHOH = ON*

What was measured:
various HDACs = tested on: various HDACs; design: method as in PMID 25738536; conditions: FDA approved HDAC inhibitors; cited from earlier work
class I HDAC = conditions: cited from earlier work
Text: These inhibitors function by coordinating with the HDAC active site zinc through a side chain that has zinc binding properties such as a hydroxamic acid or ethyl ketone.

HDAC1-MTA1-RBBP4 = HDAC1-MTA1-RBBP4 (Homo sapiens, UniProt Q09028+Q13330+Q13547); test: Fluorescence-based HDAC inhibition assay (BOC-Lys-AMC substrate); type: biochemical; conditions: 50 nM HDAC1-MTA1-RBBP4, 30 min at 37 °C
Sequence of HDAC1-MTA1-RBBP4 (Q13547 whole entry): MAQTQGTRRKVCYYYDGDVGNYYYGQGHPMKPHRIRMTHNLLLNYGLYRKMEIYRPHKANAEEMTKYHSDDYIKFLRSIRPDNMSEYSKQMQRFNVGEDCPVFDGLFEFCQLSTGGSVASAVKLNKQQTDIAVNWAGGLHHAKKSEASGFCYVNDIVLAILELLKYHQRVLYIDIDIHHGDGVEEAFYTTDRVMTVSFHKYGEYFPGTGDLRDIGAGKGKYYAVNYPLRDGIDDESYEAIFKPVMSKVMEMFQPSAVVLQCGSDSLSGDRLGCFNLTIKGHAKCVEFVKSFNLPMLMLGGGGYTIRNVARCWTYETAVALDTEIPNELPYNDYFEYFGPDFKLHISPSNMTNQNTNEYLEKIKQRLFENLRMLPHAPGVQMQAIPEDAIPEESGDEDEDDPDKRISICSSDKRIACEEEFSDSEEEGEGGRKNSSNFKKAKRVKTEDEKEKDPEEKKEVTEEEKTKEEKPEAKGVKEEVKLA
Sequence of HDAC1-MTA1-RBBP4 (Q13330 whole entry partner): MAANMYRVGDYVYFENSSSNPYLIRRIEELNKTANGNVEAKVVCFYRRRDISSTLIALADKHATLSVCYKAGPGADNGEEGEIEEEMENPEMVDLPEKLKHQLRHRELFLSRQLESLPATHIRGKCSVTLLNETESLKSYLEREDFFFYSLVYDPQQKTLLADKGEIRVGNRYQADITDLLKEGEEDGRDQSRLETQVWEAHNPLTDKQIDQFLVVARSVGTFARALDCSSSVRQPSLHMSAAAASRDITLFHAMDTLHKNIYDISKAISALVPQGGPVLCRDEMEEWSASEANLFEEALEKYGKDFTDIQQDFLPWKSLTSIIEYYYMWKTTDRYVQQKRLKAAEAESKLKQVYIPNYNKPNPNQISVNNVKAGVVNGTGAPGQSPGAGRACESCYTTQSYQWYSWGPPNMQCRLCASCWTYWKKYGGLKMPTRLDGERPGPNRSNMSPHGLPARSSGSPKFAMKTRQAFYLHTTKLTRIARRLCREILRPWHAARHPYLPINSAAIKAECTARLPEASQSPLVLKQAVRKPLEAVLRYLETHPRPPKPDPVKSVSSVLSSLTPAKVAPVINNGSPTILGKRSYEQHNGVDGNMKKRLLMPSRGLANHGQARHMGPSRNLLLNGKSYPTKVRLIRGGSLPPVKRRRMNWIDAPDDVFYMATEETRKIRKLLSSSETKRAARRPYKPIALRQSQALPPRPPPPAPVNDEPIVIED
Sequence of HDAC1-MTA1-RBBP4 (Q09028 whole entry partner): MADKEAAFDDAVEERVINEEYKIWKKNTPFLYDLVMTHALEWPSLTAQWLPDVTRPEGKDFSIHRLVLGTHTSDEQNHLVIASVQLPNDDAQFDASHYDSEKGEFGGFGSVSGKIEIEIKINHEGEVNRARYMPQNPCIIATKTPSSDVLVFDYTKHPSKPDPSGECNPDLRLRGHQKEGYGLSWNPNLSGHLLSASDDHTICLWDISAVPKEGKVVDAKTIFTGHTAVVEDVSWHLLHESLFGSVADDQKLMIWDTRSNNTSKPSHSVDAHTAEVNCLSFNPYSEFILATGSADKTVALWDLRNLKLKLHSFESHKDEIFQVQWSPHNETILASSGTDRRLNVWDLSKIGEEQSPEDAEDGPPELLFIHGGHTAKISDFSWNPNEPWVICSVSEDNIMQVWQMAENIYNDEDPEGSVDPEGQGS
Procedure: SPIs 11–14 were assessed in a fluorescence-based inhibition assay to determine potency as HDAC inhibitors (Table 2). […] The lower activity of SPIs 12–13 can be attributed to the lower zinc binding affinity of ketones. In the future these amino acids will be incorporated in various histone tails to generate a library to identify important binding interactions through additional crystal structure studies. The cell permeability of these peptides will also be investigated to determine their usefulness as cellular probes.
HDAC activity was measured by using fluorescent BOC-Lys-AMC substrate in a black 96-well format. 50 nM HDAC1-MTA1-RBBP4 was incubated with inhibitor and 100 µM BOC-Lys-AMC substrate for 30 min at 37 °C in a final volume of 50 µl (50 mM Tris pH 7.5, 150 mM NaCl, 5% Glycerol). The assay was developed by the addition of 50 µl of developer solution (2 µM TSA, 10 mg ml -1 Trypsin, 50 mM Tris pH 7.5, 100 mM NaCl). Fluorescence was measured at 335/460 nm using a Victor X5 plate reader (Perkin Elmer). All measurements were performed in triplicate and data analysed using GraphPad Prism (version 7.0, GraphPad Software, Inc). In the case of titrations IC50 values were calculated by nonlinear curve fitting with a one-site binding (hyperbola) model (Y=Bmax*X/(Kd+X).
Sequence Yield Purity IC50 Retention time Peptide content
(1 picture or pasted object on this page, not shown here)

O=C(CCCCCCC(=O)Nc1ccccc1)NO [Vorinostat]
HDAC specificity, result in words (various HDACs): nonspecific across various HDACs

Romidepsin
HDAC specificity, result in words (various HDACs): nonspecific across various HDACs

O=C(/C=C/c1cccc(S(=O)(=O)Nc2ccccc2)c1)NO [Belinostat]
HDAC specificity, result in words (various HDACs): nonspecific across various HDACs

Apicidin A
HDAC inhibition, result in words (class I HDAC): class I selective HDAC inhibition in the nanomolar range

Cc1[nH]c2ccccc2c1CCNCc1ccc(/C=C/C(=O)NO)cc1 [Panobinostat]
HDAC specificity, result in words (various HDACs): nonspecific across various HDACs

CC(=O)N[C@@H](CCCCN)C(=O)N[C@@H](C)C(=O)N[C@@H](C)C(=O)N[C@@H](CCCNC(=N)N)C(=O)N[C@@H](CCCCCC(=O)NO)C(=O)N[C@@H](CO)C(=O)N[C@@H](C)C(N)=O [SPI 11] (Ac-KAAR[Asu](NHOH)SA-NH2)
HDAC inhibition, result in words (HDAC1-MTA1-RBBP4; BOC-Lys-AMC substrate, pH 7.5, tested concentration not given): comparable to our previously reported SPI based on the H4 peptide sequence

CCC(=O)CCCCC[C@H](NC(=O)[C@H](CCCNC(=N)N)NC(=O)[C@H](C)NC(=O)[C@H](C)NC(=O)[C@H](CCCCN)NC(C)=O)C(=O)N[C@@H](CO)C(=O)N[C@@H](C)C(N)=O [SPI 12] (Ac-KAAR[X1]SA-NH2)
IC50 (HDAC1-MTA1-RBBP4; 100 M BOC-Lys-AMC substrate (so in the source), 50 mM Tris pH 7.5, 150 mM NaCl, 5% Glycerol, developer TSA/Trypsin, fluorescence 335/460 nm, triplicate, one-site binding fit, unit printed µM in SI): 17 µM
